This note sets out measurements from patent publication US20030039697A1, “Matrices containing nitric oxide donors and reducing agents and their use” (priority 2002, published 2003).

For this test, the system named is E. coli. Format: cell-based.

For the compound `N[C@@H](CCC(=O)N[C@@H](CSN=O)C(=O)NCC(=O)O)C(=O)O` [GSNO, S-nitroso-L-glutathione], the “growth of bacteria (E. coli) with coated catheter segments” value is on record as “inhibits growth of bacteria”.
